Reference: publication PMC6883804, “Cathelicidin Contributes to the Restriction of Leishmania in Human Host Macrophages” (Frontiers in Immunology, 2019)

Columns and labels:
CAMP = CAMP gene expression in hMDM1 by qRT-PCR after vitamin D derivatives; assay type: cell-based, human; details: hMDM1, 100 nM, after 6 days (late), qRT-PCR normalized to GAPDH and to untreated control = 1, mean ± SD, n = 1-5
Procedure: Human peripheral mononuclear cells (PBMCs) were isolated from buffy coats (DRK-Blutspendedienst Hessen GmbH) by passage over a Leukocyte Separation Medium gradient as described previously ([30]). Monocytes, obtained by plastic adherence or CD14 selection were incubated either with 10 ng/ml rhGM-CSF (Leukine® Sanofi-Aventis, Bridgewater, US) or 30 ng/ml rhM-CSF (R&D Systems, Abingdon, UK) for a period of 5 to 7 d at 37°C, 5% CO2 to generate hMDM1 or hMDM2, respectively. Cells were generated in 6 w plates or in 25 cm^2 culture flasks and were detached by cooling cells down on ice, following detachment with a cell scraper. […]
The cells were co-incubated with stationary phase Lm or Lae promastigotes or axenic amastigotes at a MOI ratio of 1:10 in RPMI 1640 supplemented with 10% heat inactivated fetal calf serum, 50 μM β-mercaptoethanol (all from Sigma Aldrich), 2 mM L-glutamine, 100 U/ml penicillin and 100 μg/ml streptomycin, 10 mM HEPES (all from Biochrom) for 3 h at 37°C in a humidified atmosphere in a CO2 incubator. […] The LmdsRed promastigotes increase their fluorescence intensity when transforming into amastigotes, which enables the quantification of the parasite propagation by measuring the dsRed mean fluorescence intensity using FACS ([62], [63]). […]

cathelicidin = experiment: Cathelicidin protein expression in hMDM1 by western blot densitometry; assay type: cell-based, human; details: hMDM1, 100 nM, western blot densitometry normalized to ß-actin and untreated control = 1, mean ± SD, n = 5-7
Procedure: Human peripheral mononuclear cells (PBMCs) were isolated from buffy coats (DRK-Blutspendedienst Hessen GmbH) by passage over a Leukocyte Separation Medium gradient as described previously ([30]). Monocytes, obtained by plastic adherence or CD14 selection were incubated either with 10 ng/ml rhGM-CSF (Leukine® Sanofi-Aventis, Bridgewater, US) or 30 ng/ml rhM-CSF (R&D Systems, Abingdon, UK) for a period of 5 to 7 d at 37°C, 5% CO2 to generate hMDM1 or hMDM2, respectively. Cells were generated in 6 w plates or in 25 cm^2 culture flasks and were detached by cooling cells down on ice, following detachment with a cell scraper. Experimental data, conducted with monocytes obtained from human donors, are depicted as dot plots, in which each dot presents data from a single donor.
(§1) The cells were co-incubated with stationary phase Lm or Lae promastigotes or axenic amastigotes at a MOI ratio of 1:10 in RPMI 1640 supplemented with 10% heat inactivated fetal calf serum, 50 μM β-mercaptoethanol (all from Sigma Aldrich), 2 mM L-glutamine, 100 U/ml penicillin and 100 μg/ml streptomycin, 10 mM HEPES (all from Biochrom) for 3 h at 37°C in a humidified atmosphere in a CO2 incubator. Extracellular parasites were removed by centrifugation and washing the cells. During infection experiments, cathelicidin expression was induced by incubation of hMDM with 100 nM calcitriol or calcipotriol for 24 h. […] The LmdsRed promastigotes increase their fluorescence intensity when transforming into amastigotes, which enables the quantification of the parasite propagation by measuring the dsRed mean fluorescence intensity using FACS ([62], [63]).
A total number of 0.5 × 10^6 hMDM were lysed in Lämmli-Buffer (A. bidest supplemented with 0.7 M Glycerol, 1.7% SDS, 0.1 M DTT and 30 μM Bromphenol blue), denaturated at 95°C for 10 min and loaded onto a 15% SDS-polyacrylamide gel. […] The membrane was washed once more and the protein bands were detected using an ECL substrate (GE Healthcare, Buckinghamshire, United Kingdom). Using ImageJ, densitometry analysis was performed to quantify the intensities of the protein bands.

L. major dsRed in hMDM1 [1] = experiment: Parasite survival (dsRed MFI) in infected hMDM1 by flow cytometry; assay type: cell-based, Leishmania major; details: hMDM1 pretreated 24 h with 100 nM, infected with Lm dsRed MOI 10, flow cytometry, mean ± SD; control 1.00 ± 0.46
Procedure: as §1, with “h. For transgenic LmdsRed flow cytometry was used to analyze infection rates.” for “h.”
(§2) • FACS analysis of Leishmania parasites was performed as described Wenzel et al. ([61]). […] The cells were washed in FACS-Buffer and analyzed by flow cytometry. • To assess parasite survival, Leishmania (dsRed^+) infected hMDM were washed in FACS-buffer and infection rate (% of dsRed^+ hMDM) and the parasite load (mean fluorescent intensity) were assessed by flow cytometry. […] Data were analyzed by BD FACS Diva or FlowJo software (Treestar).

L. major dsRed in hMDM1 [2] = experiment: Infection rate (% dsRed+ hMDM1) by flow cytometry; assay type: cell-based, Leishmania major; details: hMDM1 pretreated 24 h with 100 nM, infected with Lm dsRed MOI 10, flow cytometry
Procedure: as §1, with “h. For transgenic LmdsRed flow cytometry was used to analyze infection rates.” for “h.”
as §2

L. aethiopica (Lae) [3] = experiment: DNA fragmentation (TUNEL) by flow cytometry, L. aethiopica; assay type: cell-based, Leishmania aethiopica
Procedure: (§3) L. major (Lm, MHOM_IL_81_FEBNI), L. aethiopica (Lae, MHOM/ET/72/L100 Z14), and the transgenic Lm dsRed (construct pSSUint-DsRed was a kind gift from Dr. Toni Aebischer, Robert Koch Institute, Berlin, Germany) and Lae dsRed promastigotes were cultured at 27°C in biphasic Novy-Nicolle-McNeal blood agar medium as described ([60]). Of note, all viable promastigotes express the transgenic dsRed protein. Upon transformation into the amastigote life stage, a 1 log-scale higher dsRed fluorescence is present, due to the high-level expression in the amastigote life stage ([31]). Logarithmic-phase or stationary-phase promastigotes were obtained after 2 (log-phase) or 7 (stat-phase) days of culture, respectively. Lm and Lae axenic amastigotes were generated by incubating log-phase promastigotes in pH 5.5 at 33°C and isolated using a discontinuous Histopaque® 1119 (Sigma Aldrich, Germany) density gradient as described ([61]).
(§4) To assess apoptosis, Lm and Lae promastigotes, which resided in a logarithmic growth phase, were treated with 30 and 60 ng/ml hrLL37 (PeptaNova GmbH, Sandhausen, Germany) for 72 h. […] Subsequently, DNA fragmentation was assessed by flow cytometry or immunofluorescence imaging using an in situ cell-death detection kit, based on terminal deoxynucleotidyl transferase dUTP nick end labeling (TUNEL), as described ([30]). Exposure of phosphatidylserine (PS) was assessed by AnnexinA5 binding using flow cytometry.
(§5) • FACS analysis of Leishmania parasites was performed as described Wenzel et al. ([61]). Apoptosis, among parasites, was assessed by staining with AnnexinA5-Alexa Fluor 647 using a Ca^2+ rich buffer. • For phenotyping hMDM by flow cytometry, hMDM were washed in FACS-Buffer (PBS supplemented with 1% FCS, 1% human serum and 1% BSA) and incubated with anti-CD14-FITC (1:100, IgG2b), anti-CD163-PE (1:50, IgG1, GHI/61), or anti-MHC II-PerCP (1:100, IgG2a, L243) for 30 min on ice in the dark. […] Upon analyzing, at least 10,000 events (human cells) or 20,000 (parasites) were recorded using a BD LSR II flow cytometer (BD Bioscience, Heidelberg, Germany). […]

Leishmania major (Lm) [4] = experiment: DNA fragmentation (TUNEL) by flow cytometry, L. major; assay type: cell-based; details: mean ± SD
Procedure: as §3, §4, §5

L. aethiopica (Lae) [5] = experiment: Phosphatidylserine exposure (AnnexinA5 binding) by flow cytometry, L. aethiopica; assay type: cell-based, Leishmania aethiopica; details: mean ± SD; for AnnexinA5-binding parasites: Lae log-phase promastigotes, 72 h, untreated 8.0 ± 4.5%
Procedure: as §3, §4, §5

Leishmania major (Lm) [6] = experiment: Phosphatidylserine exposure (AnnexinA5 binding) by flow cytometry, L. major; assay type: cell-based; details: mean ± SD; for AnnexinA5-binding parasites: Lm log-phase promastigotes, 72 h, untreated 14.7 ± 11.1%
Procedure: as §3, §4, §5

Leishmania promastigotes = experiment: Parasite morphology by microscopy after hrLL37 treatment; assay type: cell-based; details: microscopy (Figure 2C), as described for apoptotic parasites
Procedure: To assess apoptosis, Lm and Lae promastigotes, which resided in a logarithmic growth phase, were treated with 30 and 60 ng/ml hrLL37 (PeptaNova GmbH, Sandhausen, Germany) for 72 h. Leishmania axenic amastigotes were treated with 10 and 100 ng/ml hrLL37 or 25 μM staurosporine for 24 h. Subsequently, DNA fragmentation was assessed by flow cytometry or immunofluorescence imaging using an in situ cell-death detection kit, based on terminal deoxynucleotidyl transferase dUTP nick end labeling (TUNEL), as described ([30]). Exposure of phosphatidylserine (PS) was assessed by AnnexinA5 binding using flow cytometry.

[7] = higher of two hrLL37 concentrations (60 ng/ml per methods)
[8] = lower of two hrLL37 concentrations (30 ng/ml per methods)

Compound: C=C1/C(=C\C=C2/CCC[C@]3(C)[C@@H]([C@H](C)CCCC(C)(C)O)CC[C@@H]23)C[C@@H](O)C[C@@H]1O [CCT, 1α, 25-dihydroxyvitamin D3]
- CAMP gene expression, fold increase (CAMP): 587 ± 173 fold
- cathelicidin protein expression, fold increase (cathelicidin; early (24 h)): 25.5 ± 22.2 fold
- cathelicidin protein expression, fold increase (cathelicidin; late (6 d)): 152.5 ± 149.6 fold
- L. major parasite survival (mean fluorescent intensity of dsRed, relative to control) (L. major dsRed in hMDM1 [1]): 0.60 ± 0.25
- percentage of hMDM1 infected cells (infection rate) (L. major dsRed in hMDM1 [2]): did not change significantly

Compound: C=C1/C(=C\C=C2/CCC[C@]3(C)[C@@H]([C@H](C)/C=C/[C@@H](O)C4CC4)CC[C@@H]23)C[C@@H](O)C[C@@H]1O [CPT, calcipotriol]
- CAMP gene expression, fold increase (CAMP): 282 fold
- cathelicidin protein expression, fold increase (cathelicidin; late (6 d)): 101.9 ± 125.4 fold
- L. major parasite survival (mean fluorescent intensity of dsRed, relative to control) (L. major dsRed in hMDM1 [1]): 0.74 ± 0.23
- percentage of hMDM1 infected cells (infection rate) (L. major dsRed in hMDM1 [2]): did not change significantly

Compound: hrLL37: human recombinant LL37 (PeptaNova GmbH), the hCAP18-derived amphipathic α-helical antimicrobial peptide
- TUNEL positivity (L. aethiopica (Lae) [3]; Lae axenic amastigotes, hrLL37 (10 and 100 ng/ml in methods, concentration of this value not stated), 24 h, mean ± SD, untreated 32.3 ± 13.3%): 87.0 ± 6.1%
- TUNEL positivity (L. aethiopica (Lae) [3]; Lae log-phase promastigotes, higher of two increasing hrLL37 concentrations (60 ng/ml per methods), 72 h, mean ± SD of at least 3 experiments, untreated 13.3 ± 1.2%): 21.1 ± 2.3%
- TUNEL positivity (L. aethiopica (Lae) [3]; Lae log-phase promastigotes, lower of two increasing hrLL37 concentrations (30 ng/ml per methods), 72 h, mean ± SD of at least 3 experiments, untreated 13.3 ± 1.2%): 15.5 ± 8.3%
- TUNEL positivity (Leishmania major (Lm) [4]; Lm axenic amastigotes, rhLL37 (10 and 100 ng/ml in methods, concentration of this value not stated), 24 h, not significantly increased, untreated 12.0 ± 6.6%): 12.1 ± 2.1%
- TUNEL positivity (Leishmania major (Lm) [4]; Lm log-phase promastigotes, higher of two increasing hrLL37 concentrations (60 ng/ml per methods), 72 h, untreated 6.24 ± 1.9%): 22.9 ± 3.1%
- TUNEL positivity (Leishmania major (Lm) [4]; Lm log-phase promastigotes, lower of two increasing hrLL37 concentrations (30 ng/ml per methods), 72 h, untreated 6.24 ± 1.9%): 20.2 ± 0.7%
- AnnexinA5 binding (L. aethiopica (Lae) [5]; Lae axenic amastigotes, hrLL37 (10 and 100 ng/ml in methods, concentration of this value not stated), 24 h, untreated 18.7 ± 6.1%): 71.3 ± 12.6%
- AnnexinA5-binding parasites (L. aethiopica (Lae) [5]; [7]): 31.3 ± 26%
- AnnexinA5-binding parasites (L. aethiopica (Lae) [5]; [8]): 27.1 ± 14.3%
- AnnexinA5 binding (Leishmania major (Lm) [6]; Lm axenic amastigotes, rhLL37 (10 and 100 ng/ml in methods, concentration of this value not stated), 24 h, minor but significant increase, untreated 3.3 ± 2.3%): 8.3 ± 3.0%
- AnnexinA5-binding parasites (Leishmania major (Lm) [6]; [7]): 74.8 ± 23.2%
- AnnexinA5-binding parasites (Leishmania major (Lm) [6]; [8]): 51.5 ± 20.5%
- Morphology of treated parasites (Leishmania promastigotes): round-shaped morphology
